Measurements taken from US10828276B2, “Combination therapeutics and methods for the treatment of neurodegenerative and other diseases” (APHIOS CORPORATION, priority 2012, dated 2020).

How the values were obtained:
[1] = system: ADAM10; assay: ADAM10 expression in SH-SY5Y cells; type: cell-based; conditions: single agents
Text: Therefore, Bryostatin-1 may increase […]-secretase processing through 2 independent mechanisms: (i) activation of PKCs which stimulate[…]secretase; and (ii) increased expression of […]-secretase.

[2] = system: Alzheimer's disease mediated memory loss; assay: Water maze studies in sweAPP/PS1 mice; type: in vivo, Mouse strain B6C3-Tg
Text: Mouse strain B6C3-Tg carrying mutant Swedish Amyloid precursor protein (sweAPP) and PS1 (presenilin-1) genes associated with early onset Alzheimer's disease were subjected to water maze tests at 5-6 months of age.

[3] = system: SH-SY5Y neuroblastoma cells; assay: sAPP-a release from SH-SY5Y cells (6E10 western blot, densitometry); type: cell-based
Experimental: Cells were treated with RA, Bryostatin-1 (10^−9M)+RA, Bryostatin-1 (10^−10M), RA+Bryostatin-1 (10^−10M) for 3 h.

CCC/C=C/C=C/C(=O)O[C@H]1/C(=C/C(=O)OC)C[C@H]2C[C@H]([C@@H](C)O)OC(=O)C[C@H](O)C[C@@H]3C[C@H](OC(C)=O)C(C)(C)[C@](O)(C[C@@H]4C/C(=C/C(=O)OC)C[C@H](/C=C/C(C)(C)[C@]1(O)O2)O4)O3 [Bryostatin-1]
expression of ADAM10 [1]: significantly increase
protection against Alzheimer's disease mediated memory loss (water maze) ([2]; 5 micrograms/mouse on alternative days orally in an oil formulation, mice 5-6 months of age, vs control animals): significant protection
memory and cognition in AD model ([2]; our AD model): enhance memory and cognition
sAPP formation ([3]; 10^−9M Bryostatin-1 alone): increased
activity of alpha-secretase ([3]; SH-SY5Y neuroblastoma cells): potently stimulate
sAPPa recovered from culture medium compared to control ([3]; single agents, RA 2 μM, Bryostatin-1 10^−10M, 3 h, p<0.05, p<0.01): significantly increased
